“Also recorded” adds a separate entry of the source.
Assays:
[1] = cited from earlier work
[2] = Commercial feedlot trial NORS vs Micotil: weight gain; assay type: in vivo, beef calves
Method: (§1) NORS was delivered with a spray device specifically designed for the study. […] Animals in the control cohort received an injection of Micotil® of 2 mL/100 lb.
During the follow-up period (day 35 to day 60), relapses requiring antibiotic intervention were recorded as part of the normal feedlot routine. At day 150, all animals were assessed for average daily weight gain and recorded.
In order to evaluate the effect of treatment on 35-day weight change, a linear mixed effects model was fit to the data. Specifically, the effect of treatment on weight change was evaluated while controlling for baseline weight (fixed effect) and pen (random effect). Confidence intervals are based on the linear mixed effects model and account for the possibility of correlation of animals grouped together within the same pen.

[3] = system: BRDc; assay: Commercial feedlot trial NORS vs Micotil: BRDc incidence, relapse, mortality; assay type: in vivo, beef calves
From the text: Commingled, multi-sourced, mixed-breed beef calves were purchased from auction markets for these studies. […] Animals identified for the study were to be approximately 6 months old with an estimated initial mean body weight of between 400-600 lbs. All animals were transported via commercial cattle liners to the feedlot. […] After a 24-hour acclimatization period, the calves were screened, enrolled, randomized, processed, weighed, and temperature measured with blood samples taken by a veterinarian.
as §1
Animals identified by the pen keepers as appearing to be sick were “pulled” and brought into a barn. The animal was then placed in a catch chute and assessed by a veterinarian, who was blinded to the study, and assigned a clinical score to each animal.
BRDc was diagnosed as positive based on temperature greater than 103.5° F. and a clinical pulmonary score of 3 or greater.
At day 150, all animals were assessed for average daily weight gain and recorded.
Animals that died during the first 35 days of the study, for any reason, were sent for pathology testing (done by a board certified, blinded, veterinary pathologist). The following sections were tested: Lungs (left anterior, left middle, left caudal, right anterior, right middle, right caudal), heart, nasal mucosa, pharynx, Retropharyngeal L.N. and trachea. Diagnosis for the cause of death was determined by the pathologist.
Deaths of animals from day 35 to 150 were recorded and the farm's pathologist identified the cause of death.
In order to evaluate the difference in BRDc positive rates between NORS and Micotil® treated animals, a non-inferiority analysis was conducted. Specifically, the null hypothesis that the BRDc positive rate in the Bovinex group (pB) is more than 7.5% higher than the rate in the Micotil® group (pM) was tested using a nonparametric bootstrap: • H0: pB−pM≧7.5% • vs. • H1: pB−pM<7.5%

[4] = system: Trichophyton rubrum; assay: Antifungal efficacy of NORS, mycelial viability; assay type: cell-based; conditions: 0.14% sodium nitrite (pH 6) or citric acid at pH 3.7 alone, 30-minute exposure
[5] = system: Trichophyton mentagrophytes; assay: Antifungal efficacy of NORS, mycelial viability; assay type: cell-based; conditions: 0.14% sodium nitrite (pH 6) or citric acid at pH 3.7 alone, 30-minute exposure
[6] = in vivo; cited from earlier work

In the case of `[N]=O` [NO, Nitric Oxide], the “half-life in the body” value [1] is given as “less than 6 s”.

In the case of `CC[C@H]1OC(=O)C[C@@H](O)[C@H](C)[C@@H](O[C@@H]2O[C@H](C)[C@@H](O)[C@H](N(C)C)[C@H]2O)[C@@H](CCN2C[C@H](C)C[C@H](C)C2)C[C@@H](C)C(=O)/C=C/C(C)=C/[C@@H]1CO[C@@H]1O[C@H](C)[C@@H](O)[C@@H](OC)[C@H]1OC` [antibiotic, tilmicosin], the average daily gain ([2]; 35 days) is reported as 2.0 lbs/day, the “average 35-day weight gain” value ([2]; baseline weight of 554 lbs) is reported as 70 lbs and the average daily gain ([2]; day 150) is reported as 2.61 lbs. For the same compound, the average gain ([2]; day 150) was 392 lbs, the “additional weight gain relative to those treated with NORS” value ([2]; over 35 days) was 5.5 lbs and the “# of BRDc positive animals” value ([3]; Pen B2) was 1. The “% of BRDc positive animals” value ([3]; Pen B2) was 0.7%, the “# of BRDc positive animals” value ([3]; Pen B6) was 5 and the “% of BRDc positive animals” value ([3]; Pen B6) was 3.7%. For the same compound, the “# of BRDc positive animals” value ([3]; Pen C3) was 3, the “% of BRDc positive animals” value ([3]; Pen C3) was 2.2% and the “# of BRDc positive animals” value ([3]; Pen C7) was 8. For the same compound, the “% of BRDc positive animals” value ([3]; Pen C7) was 6.2%, the “BRDc related deaths as diagnosed by the feedlot” value ([3]; day 35-150) was 3 and the animals that died ([3]; day 35-150) was 12. The animals that died ([3]; during the 35 days of the study) was 8, the “animals pulled for suspected illness” value ([3]; first 35 days) was “Thirty-three” and the number of relapses ([3]; followed until day 150) was 10. The “# of BRDc positive animals” value ([3]; total of cohort, 35 days) was 17 and the “% of BRDc positive animals” value ([3]; total of cohort, 35 days) was 3.2%.

With `O=C(O)CC(O)(CC(=O)O)C(=O)O` [citric acid] the “effect of single component on mycelial growth” value (“effect of single component” below) [4] was “Minimal to no effect; also recorded: no significant effect” and the “effect of single component” value [5] was “Minimal to no effect; also recorded: no significant effect”.

For `O=NO` [sodium nitrite], the “effect of single component” value [4] was “Minimal to no effect”, the “effect of single component” value ([4]; listed as nitrites) was “no significant effect” and the “effect of single component” value [5] was “Minimal to no effect”. The “effect of single component” value ([5]; listed as nitrites) was “no significant effect”.

In the case of `CCCNC[C@]1(O)[C@H](C)O[C@@H](O[C@H]2[C@H](C)[C@@H](O[C@@H]3O[C@H](C)C[C@H](N(C)C)[C@H]3O)[C@](C)(O)C[C@@H](C)CN[C@H](C)[C@@H](O)[C@](C)(O)[C@@H](CC)OC(=O)[C@@H]2C)C[C@@]1(C)OC` [tulathromycin], the “time remaining in the pulmonary system” value [6] is given as at most 28 days.

From patent publication US20160051579A1, “NITRIC OXIDE TREATMENT OF BOVINE RESPIRATORY DISEASE COMPLEX AND OTHER RESPIRATORY CONDITIONS” (Bovicor Pharmatech, Inc., priority 2014, published 2016)
